These results are taken from patent US11141403B2, “Benzimidazoles and indoles as taro inhibitors” (MERCK SHARP & DOHME CORP., priority 2015, dated 2021).

By IC50 is commonly meant the concentration at which inhibition is half-maximal.

Assay [1] deals with MRSA COL (MB5393). The experiment in a line: TarO Inhibitor/β-Lactam Synergy Assay. Format: cell-based, Staphylococcus aureus. To be noted: 20 hours; for IC95: TarO inhibitor alone, OD600, 95% growth inhibition, read-out: MITC95 TarO inhibitor alone, Bacteria: SA_MB5393; for MITC95 TarO inhibitor + 4 μg/mL IPM; Bacteria: SA_MB5393: in combination with 4 μg/mL imipenem; for MITC95 TarO inhibitor + 4 μg/mL IPM; Bacteria: SA_MB5393 / MITC95 TarO inhibitor + 8 μg/mL DCX; Bacteria: SA_MB5393: OD600; for MITC95 TarO inhibitor + 8 μg/mL DCX; Bacteria: SA_MB5393: in combination with 8 μg/mL dicloxacillin. The procedure, abridged: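 TarO inhibitors titrated 2-fold from 200 μM (2% DMSO) against MRSA COL, 5×10^5 CFU in CAMHB, with β-lactam fixed at clinical breakpoint (imipenem 4 μg/ml or dicloxacillin 8 μg/ml). Incubated 20 h at 37 °C without shaking; relative growth read as OD600.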

Assay [2] concerns MRSA COL (MB 5393). Briefly: In Vivo Murine Systemic Infection Model. The conditions noted are these: for Bacteria recovered: tid, neutropenic Balb/C mice, 24 h post challenge; for Fold reduction vs. vehicle alone: kidney cfu. Also on record: species or system Staphylococcus aureus. How it is done:
The murine systemic infection model determines the therapeutic efficacy of TarO inhibitor/β-lactam combinations in vivo. Staphylococci bacteria can cause a systemic infection and establish a robust growth in the kidneys of the infected animal. MRSA COL can establish an infection even in the presence of β-lactam antibiotic due MRSA COL resistance to β-lactam antibiotics.
Female Balb/C mice were rendered neutropenic (immune suppressed) with a single 250 mg/kg intraperitoneal (ip) dose of cyclophosphamide on […]. MRSA COL (MB 5393) was grown for 16 hours in trypticase soy broth (TSB) at 37° C. and 0.5 mL of diluted culture (˜1×10^4 cfu) was administered intraperitoneal (IP). The TarO inhibitor and β-lactam antibiotic were administered alone or in combination by subcutaneous route at 2, 5 and 8 hr. post challenge (sc, tid). Twenty four hours post challenge mice were euthanized and the kidneys harvested, weighed, homogenized and plated to measure the total number of bacteria recovered as colony forming unit (CFU) remaining in compound treated groups as compared to vehicle (saline) or β-lactam antibiotic alone groups (statistical analyses was determined by one way ANOVA).

The target of assay [3] is TarO (Staphylococcus aureus, UniProt Q2G060). The experiment in a line: TarO Biochemical Enzymatic Assay (LC-MS end point, C55-PP-GlcNAc (LIPID III) production). To be noted: TarO membrane preparation derived from MRSA COL; read-out: TARO inhibitor IC50. An excerpt:
The pathway for the biosynthesis of wall teichoic acid (WTA) in Staphylococci involves a series of biochemical enzymatic reactions by proteins encoded by the tar genes (teichoic acid ribitol). The first enzymatic step in the synthesis of WTA is initiated by TarO, N-acetylglucosaminyl-1-P transferase, which catalyzes the transfer of N-acetyl-glucosamine-phosphate (GlcNAc-P) to an undecaprenyl phosphate (C55-P), also known as bactoprenyl phosphate, to generate C55-PP-GlcNAc (LIPID III).
The TarO biochemical enzymatic assay is a liquid chromatography-mass spectroscopy (LC-MS) based end point assay that measures C55-P-P-GlcNAc (LIPID III) production. The TarO biochemical enzymatic assay was performed in a 384-well microtiter plate (Labcyte) with a reaction volume of 20 μl. […] The linearity of C55-PP-GlcNAc concentration versus mass spectrometric signal (AC55-PP-GlcNAc/A15C-C55-PP-GlcNAc) was determined with purified C55-PP-GlcNAc. The IC50 values were calculated using the nonlinear regression analysis (sigmoidal dose response fit allowing for a variable slope) of percent inhibition data with minimum and maximum values set to 0 and 100 percent.

“And” between values parts separate entries of the source, which are not always exact repeats. Identical values can stand only once. Like-named read-outs stand apart in the source and are kept apart here.

TarO, sequence (Q2G060 1-351): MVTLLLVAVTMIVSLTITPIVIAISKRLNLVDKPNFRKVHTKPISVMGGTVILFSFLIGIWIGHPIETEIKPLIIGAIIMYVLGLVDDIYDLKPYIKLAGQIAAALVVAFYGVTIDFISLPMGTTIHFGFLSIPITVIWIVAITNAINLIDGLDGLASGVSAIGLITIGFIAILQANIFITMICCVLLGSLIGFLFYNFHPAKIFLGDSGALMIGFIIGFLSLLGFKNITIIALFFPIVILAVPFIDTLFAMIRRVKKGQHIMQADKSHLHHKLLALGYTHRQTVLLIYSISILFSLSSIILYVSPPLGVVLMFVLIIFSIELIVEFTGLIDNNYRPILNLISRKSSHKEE

With `CC1(C)[C@@H]2CC[C@@]1(C)[C@H](NC(=O)CCn1c(C3CCCCC3)nc3ccccc31)C2` [Example 37, 3-(2-cyclohexyl-1H-benzimidazol-1-yl)-N-[(1R,2R,4R)-1,7,7-trimethylbicyclo[2.2.1]hept-2-yl]propanamide], the IC95 in assay [1] (Staphylococcus aureus) was greater than 200 µM. Further, the “MITC95 TarO inhibitor + 4 μg/mL IPM; Bacteria: SA_MB5393” value (shortened to “MITC95 TarO inhibitor + 4 μg/mL IPM”) in assay [1] stood at 1.69 µM. The “MITC95 TarO inhibitor + 8 μg/mL DCX; Bacteria: SA_MB5393” value (“MITC95 TarO inhibitor + 8 μg/mL DCX” for short) in assay [1] is 12.50 µM. The Bacteria recovered in assay [2] (Example 37 (100 mg/kg) + imipenem (5 mg/kg) sc) is listed as 2.6×10^4 cfu/g kidney; in assay [2] (Example 37 alone (100 mg/kg) sc), 1.5×10^7 cfu/g kidney. Further, the “Fold reduction vs. vehicle alone” value in assay [2] (Example 37 (100 mg/kg) + imipenem (5 mg/kg)) is 730 and 730.8; in assay [2] (Example 37 alone (100 mg/kg)), 1.3.

For the compound `CCN(C(=O)CCn1c(C2CCCN(C(=O)OC(C)(C)C)C2)nc2ccccc21)C1CCCCC1` (stereo not shown) [Example 54], the IC50 in assay [3] is 0.45 µM. Besides, in assay [1], the IC95 is given as 100 µM, the “MITC95 TarO inhibitor + 4 μg/mL IPM” value is 1.56 µM and the “MITC95 TarO inhibitor + 8 μg/mL DCX” value is 12.50 µM.

In the case of `C[C@@H](O)[C@H]1C(=O)N2C(C(=O)O)=C(SCCN=CN)C[C@H]12` [imipenem, reference compound], the Bacteria recovered in assay [2] (Imipenem alone (5 mg/kg) sc) is on record as 1.0 × 10^6 cfu/g kidney. The “Fold reduction vs. vehicle alone” value in assay [2] (Imipenem alone (5 mg/kg)) is 19.

With `CCN(C(=O)CCn1c2cccc(F)c2nc1[C@H]1CC[C@H](CC)CC1)C1CCCCC1` [Example 9, N-cyclohexyl-N-ethyl-3-[2-(trans-4-ethylcyclohexyl)-4-fluoro-1H-benzimidazol-1-yl]propanamide], the IC95 in assay [1] (Staphylococcus aureus) was greater than 200 µM. Further, in assay [1], the “MITC95 TarO inhibitor + 4 μg/mL IPM” value was determined as 0.13 µM and the “MITC95 TarO inhibitor + 8 μg/mL DCX” value is 0.79 µM.

Regarding `CCN(C(=O)CCn1c(N2CCC(C(C)(C)C)CC2)nc2ccccc21)C1CCCCC1` [Example 58, 3-[2-(4-tert-butylpiperidin-1-yl)-1H-benzimidazol-1-yl]-N-cyclohexyl-N-ethylpropanamide], in assay [1] (Staphylococcus aureus), the IC95 was greater than 200 µM. In assay [1], the “MITC95 TarO inhibitor + 4 μg/mL IPM” value is 0.02 µM and the “MITC95 TarO inhibitor + 8 μg/mL DCX” value amounted to 0.13 µM.

Turning to `CCCCOC(=O)N1CCCC(c2nc3ccccc3n2CCC(=O)N(CC)C2CCCCC2)C1` (stereo not shown) [Example 45, butyl 3-(1-{3-[cyclohexyl(ethyl)amino]-3-oxopropyl}-1H-benzimidazol-2-yl)piperidine-1-carboxylate], the IC95 in assay [1] (Staphylococcus aureus) was found to be 100 µM. In assay [1], the “MITC95 TarO inhibitor + 4 μg/mL IPM” value is 0.20 µM and the “MITC95 TarO inhibitor + 8 μg/mL DCX” value is 0.78 µM.

Turning to `CCN(C(=O)CCn1c2cc(CN3CC(F)(F)C3)ccc2nc1[C@H]1CC[C@H](CC)CC1)C1CCCCC1` [Example 31, N-cyclohexyl-3-{6-[(3,3-difluoroazetidin-1-yl)methyl]-2-(trans-4-ethylcyclohexyl)-1H-benzimidazol-1-yl}-N-ethylpropanamide], in assay [1] (Staphylococcus aureus), the IC95 was greater than 200 µM. Further, in assay [1], the “MITC95 TarO inhibitor + 4 μg/mL IPM” value is 6.25 µM and the “MITC95 TarO inhibitor + 8 μg/mL DCX” value came out at 50 µM.

As for `CCN(C(=O)CCn1c2ccc(C#N)cc2nc1[C@H]1CC[C@H](CC)CC1)C1CCCCC1` [Example 22, 3-[5-cyano-2-(trans-4-ethylcyclohexyl)-1H-benzimidazol-1-yl]-N-cyclohexyl-N-ethylpropanamide], in assay [1] (Staphylococcus aureus), the IC95 was greater than 200 µM. In assay [1], the “MITC95 TarO inhibitor + 4 μg/mL IPM” value is 0.36 µM and the “MITC95 TarO inhibitor + 8 μg/mL DCX” value was determined as 0.88 µM.

Turning to `CCN(C(=O)CCn1c2cccnc2nc1[C@H]1CC[C@H](CC)CC1)C1CCCCC1` [Example 2, N-cyclohexyl-N-ethyl-3-[2-(trans-4-ethylcyclohexyl)-1H-imidazo[4,5-b]pyridin-1-yl]propanamide], the IC95 in assay [1] (Staphylococcus aureus) is greater than 200 µM. Moreover, in assay [1], the “MITC95 TarO inhibitor + 4 μg/mL IPM” value was found to be 1.88 µM and the “MITC95 TarO inhibitor + 8 μg/mL DCX” value amounted to 18.75 µM.

Consider `CCN(C(=O)CCn1c2ccc(C3CC3)cc2nc1[C@H]1CC[C@H](CC)CC1)C1CCCCC1` [Example 26, N-cyclohexyl-3-[5-cyclopropyl-2-(trans-4-ethylcyclohexyl)-1H-benzimidazol-1-yl]-N-ethylpropanamide], for which the IC95 in assay [1] (Staphylococcus aureus) is greater than 200 µM. In assay [1], the “MITC95 TarO inhibitor + 4 μg/mL IPM” value is 1.30 µM and the “MITC95 TarO inhibitor + 8 μg/mL DCX” value came to 4.17 µM.

With `CCN(C(=O)CCn1c2cc(C[C@H]3CCOC3)ccc2nc1[C@H]1CC[C@H](CC)CC1)C1CCCCC1` [Example 28, N-cyclohexyl-N-ethyl-3-{2-(trans-4-ethylcyclohexyl)-6-[(3S)-tetrahydrofuran-3-ylmethyl]-1H-benzimidazol-1-yl}propanamide], in assay [1] (Staphylococcus aureus), the IC95 is greater than 200 µM. In assay [1], the “MITC95 TarO inhibitor + 4 μg/mL IPM” value turned out to be 1.30 µM and the “MITC95 TarO inhibitor + 8 μg/mL DCX” value turned out to be 4.17 µM.

On to `CCN(C(=O)CCn1c2cnccc2nc1[C@H]1CC[C@H](CC)CC1)C1CCCCC1` [Example 4, N-cyclohexyl-N-ethyl-3-[2-(trans-4-ethylcyclohexyl)-3H-imidazo[4,5-c]pyridin-3-yl]propanamide], for which, in assay [1] (Staphylococcus aureus), the IC95 was greater than 200 µM. For the same compound, in assay [1], the “MITC95 TarO inhibitor + 4 μg/mL IPM” value stood at 4.17 µM and the “MITC95 TarO inhibitor + 8 μg/mL DCX” value came to 41.67 µM.

Regarding `CCN(C(=O)CCn1c2cccc(C(F)F)c2nc1[C@H]1CC[C@H](C)CC1)C1CCCCC1` [Example 20, N-cyclohexyl-3-[4-(difluoromethyl)-2-(trans-4-methylcyclohexyl)-1H-benzimidazol-1-yl]-N-ethylpropanamide], in assay [1] (Staphylococcus aureus), the IC95 turned out to be 100 µM. Further, in assay [1], the “MITC95 TarO inhibitor + 4 μg/mL IPM” value came to 1.56 µM and the “MITC95 TarO inhibitor + 8 μg/mL DCX” value stood at 12.50 µM.
